From the supplement of paper PMC11061612

What was measured:
Assay in all cases: Bliss excess, mean over the matrix (fraction); higher = more synergy
[1] = tested on: UMC-11 (Other Solid Carcinomas)
In short: (§1)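 After 24 hours at 37°C and 5% CO2 in 1536-well plates, cells in DMEM/F12 or RPMI plus 10% FBS received two-drug dose matrices for 72 hours. Viability came from CellTiter-Glo 2.0 luminescence and was scaled as inhibition, anchored at 0 by vehicle wells and at 1 by blank wells. Combination Emax is taken as the second-highest inhibition in the matrix, and Bliss excess as the observed combination effect less EA + EB − EA·EB, with EA and EB the single-agent effects.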

[2] = tested on: K5 (Thyroid Gland Carcinoma)
In short: as §1

[3] = tested on: HARA (Squamous Cell Lung Carcinoma)
In short: as §1

[4] = tested on: 639-V (Bladder Carcinoma)
In short: as §1

[5] = tested on: TE-4 (Esophageal Squamous Cell Carcinoma)
In short: as §1

[6] = tested on: RKO (Colorectal Carcinoma)
In short: as §1

Mewo (Melanoma) = tested on: Mewo (Melanoma)
In short: as §1

[7] = tested on: Hs-633T (Other Solid Carcinomas)
In short: as §1

[8] = tested on: LoVo (Colorectal Carcinoma)
In short: as §1

[9] = tested on: HCC-15 (Squamous Cell Lung Carcinoma)
In short: as §1

HMV-II (Melanoma) = tested on: HMV-II (Melanoma)
In short: as §1

[10] = tested on: SUP-T1 (T-Lymphoblastic Leukemia)
In short: as §1

[11] = tested on: HDLM-2 (Hodgkin's Lymphoma)
In short: as §1

[12] = tested on: MHH-PREB-1 (B-Cell Non-Hodgkin's Lymphoma)
In short: as §1

NCI-H2461 (Mesothelioma) = tested on: NCI-H2461 (Mesothelioma)
In short: as §1

NB14 (Neuroblastoma) = tested on: NB14 (Neuroblastoma)
In short: as §1

[13] = tested on: RT-112 (Bladder Carcinoma)
In short: as §1

[14] = tested on: SW1116 (Colorectal Carcinoma)
In short: as §1

NCI-H28 (Mesothelioma) = tested on: NCI-H28 (Mesothelioma)
In short: as §1

[15] = tested on: SU-DHL-6 (B-Cell Non-Hodgkin's Lymphoma)
In short: as §1

Row | SMILES | Bliss excess [1] | Bliss excess [2] | Bliss excess [3] | Bliss excess [4] | Bliss excess [5] | Bliss excess [6] | Bliss excess (Mewo (Melanoma)) | Bliss excess [7] | Bliss excess [8] | Bliss excess [9] | Bliss excess (HMV-II (Melanoma)) | Bliss excess [10] | Bliss excess [11] | Bliss excess [12] | Bliss excess (NCI-H2461 (Mesothelioma)) | Bliss excess (NB14 (Neuroblastoma)) | Bliss excess [13] | Bliss excess [14] | Bliss excess (NCI-H28 (Mesothelioma)) | Bliss excess [15]
1 | CN(CCO)CC[C@H](CSc1ccccc1)Nc1ccc(S(=O)(=O)NC(=O)c2ccc(N3CCC([C@@H](O)c4ccccc4-c4ccc(Cl)cc4)CC3)cc2)cc1S(=O)(=O)C(F)(F)F [AZD4320] + CN(C)CCCOc1ccc(-c2ccc3ncc4c(c3c2)n(C2CCOCC2)c(=O)n4C)cn1 [AZD0156] (first compound max 1 µM, 7x7, partner max 1 µM) | -0.0015 | -0.0779 | 0.0007 | -0.0209 | -0.0285 | -0.0253 | -0.0466 | -0.014 | -0.0622 | -0.0137 | -0.0267 | -0.0333 | -0.0667 | 0.0075 | -0.0479 | 0.061 | -0.0274 | -0.069 | -0.0693 | –
2 | Cc1nc(-c2cn3c(n2)-c2ccc(-c4cnn(C(C)(C)C(N)=O)c4)cc2OCC3)n(C(C)C)n1 [Taselisib] + O=C(Nc1ccc2[nH]nc(-c3ccncc3)c2c1)[C@@H]1CCN(CC(=O)N2CCN(c3ccc(-c4ncccn4)cc3)CC2)C1 [SCH772984] (first compound max 10 µM, 7x7, partner max 5 µM) | – | 0.0419 | 0.0577 | – | – | 0.146 | 0.017 | 0.0891 | -0.0284 | – | 0.0285 | 0.0502 | 0.0529 | – | -0.012 | 0.192 | 0.108 | 0.0831 | 0.0417 | 0.0251
3 | C=CCn1c(=O)c2cnc(Nc3ccc(N4CCN(C)CC4)cc3)nc2n1-c1cccc(C(C)(C)O)n1 [AZD1775] + CCc1c2c(nc3ccc(O)cc13)-c1cc3c(c(=O)n1C2)COC(=O)[C@]3(O)CC [SN-38] (first compound max 1 µM, partner max 0.3 µM) | – | -0.0219 | -0.015 | – | – | -0.0377 | -0.0402 | -0.0522 | -0.0388 | – | -0.122 | -0.105 | -0.0928 | – | -0.1 | -0.007 | 0.109 | -0.0987 | -0.0503 | 0.0224
4 | COc1cc2ncnc(Nc3ccc(F)c(Cl)c3)c2cc1OCCCN1CCOCC1 [Gefitinib] + CC(C)n1c(=O)n(C)c2cnc3cc(F)c(-c4ccc(OCCCN5CCCCC5)nc4)cc3c21 [AZD1390] (first compound max 10 µM, 7x7, partner max 0.3 µM) | -0.0399 | -0.0479 | -0.0343 | -0.0765 | -0.0286 | -0.0362 | -0.0712 | -0.0684 | -0.0418 | -0.0442 | -0.0442 | -0.0389 | -0.0768 | -0.0748 | -0.0733 | -0.0145 | -0.0548 | -0.0835 | – | 0.0167
5 | CCc1c2c(nc3ccc(O)cc13)-c1cc3c(c(=O)n1C2)COC(=O)[C@]3(O)CC [SN-38] + O=C(c1cc(Cc2n[nH]c(=O)c3ccccc23)ccc1F)N1CCN(C(=O)C2CC2)CC1 [Olaparib] (first compound max 0.3 µM, 7x7, partner max 10 µM) | 0.035 | 0.0566 | 0.124 | 0.0917 | -0.0103 | 0.0223 | 0.008 | 0.17 | 0.0556 | – | 0.0175 | 0.0435 | -0.0438 | – | 0.0234 | 0.0063 | 0.116 | 0.0152 | 0.0588 | 0.0391
6 | CS(=O)(=O)CCNCc1ccc(-c2ccc3ncnc(Nc4ccc(OCc5cccc(F)c5)c(Cl)c4)c3c2)o1 [Lapatinib] + NC1(c2ccc(-c3nc4ccn5c(=O)[nH]nc5c4cc3-c3ccccc3)cc2)CCC1 [MK-2206] (first compound max 10 µM, 7x7, partner max 10 µM) | – | 0.0293 | 0.086 | – | – | -0.0002 | 0.0072 | 0.0256 | 0.0841 | – | -0.0337 | -0.0215 | -0.0168 | – | -0.0423 | 0.0136 | 0.0746 | -0.01 | -0.0103 | 0.0378
7 | CS(=O)(=O)CCNCc1ccc(-c2ccc3ncnc(Nc4ccc(OCc5cccc(F)c5)c(Cl)c4)c3c2)o1 [Lapatinib] + Cn1cnc2c(F)c(Nc3ccc(Br)cc3Cl)c(C(=O)NOCCO)cc21 [Selumetinib] (first compound max 10 µM, 7x7, partner max 10 µM) | – | -0.022 | -0.0257 | – | – | 0.0413 | -0.0029 | 0.026 | 0.0361 | – | -0.141 | -0.0679 | 0.0023 | – | -0.0492 | 0.0397 | 0.0134 | 0.0744 | -0.0026 | 0.0412
